In brackets after ≈: the same amount, converted by molar mass.
Key:
Assay type in all cases: functional
[1] = tested on: Staphylococcus aureus; test: Antibacterial activity against Staphylococcus aureus ATCC25923 assessed as inhibition of bacterial growth incubated for 24 hrs by broth microdilution method
[2] = tested on: Staphylococcus aureus; test: Antibacterial activity against methicillin resistant Staphylococcus aureus ATCC33591 assessed as inhibition of bacterial growth incubated for 24 hrs by broth microdilution method
[3] = Antibacterial activity against Pseudomonas syringae pv. actinidiae assessed as inhibition of bacterial growth incubated for 24 hrs by broth microdilution method
[4] = tested on: Ralstonia solanacearum; test: Antibacterial activity against Ralstonia solanacearum assessed as inhibition of bacterial growth incubated for 24 hrs by broth microdilution method
[5] = tested on: Enterococcus faecium; test: Antibacterial activity against vancomycin-resistant Enterococcus faecium ATCC 700221 assessed as inhibition of bacterial growth incubated for 24 hrs by broth microdilution method
[6] = tested on: Escherichia coli; test: Antibacterial activity against Escherichia coli ATCC25922 assessed as inhibition of bacterial growth incubated for 24 hrs by broth microdilution method
[7] = tested on: Staphylococcus aureus; test: Bactericidal activity against Staphylococcus aureus ATCC25923 assessed as inhibition of bacterial growth incubated for 24 hrs by resazurin dye based analysis
[8] = tested on: Staphylococcus aureus; test: Bactericidal activity against methicillin resistant Staphylococcus aureus ATCC33591 assessed as inhibition of bacterial growth incubated for 24 hrs by resazurin dye based analysis
[9] = tested on: Staphylococcus aureus; test: Ratio of MBC to MIC for Staphylococcus aureus ATCC25923

Structure (SMILES)	MIC [1] [µg/mL]	MIC [2] [µg/mL]	MIC [3] [µg/mL]	MIC [4] [µg/mL]	MIC [5] [µg/mL]	MIC [6] [µg/mL]	MBC [7] [µg/mL]	MBC [8] [µg/mL]	Ratio [9]
COC(=O)c1ccc(C(=O)Nc2ccc(C3c4[nH]c5ccccc5c4CCN3C)cc2)cc1 (stereo not drawn)	64 (≈ 146 µM)	32 (≈ 72.8 µM)	32 (≈ 72.8 µM)	128 (≈ 291 µM)	> 128	128 (≈ 291 µM)			
Cc1ccccc1C(=O)Nc1ccc(C2c3[nH]c4ccccc4c3CCN2C)cc1 (stereo not drawn)	64 (≈ 162 µM)	32 (≈ 80.9 µM)	64 (≈ 162 µM)	128 (≈ 324 µM)	> 128	64 (≈ 162 µM)			
CN1CCc2c([nH]c3ccccc23)C1c1ccc(NC(=O)c2cc(C(F)(F)F)cc(C(F)(F)F)c2)cc1 (stereo not drawn)	16 (≈ 30.9 µM)	32 (≈ 61.8 µM)	> 128	128 (≈ 247 µM)	> 128	128 (≈ 247 µM)			
O=C(Nc1ccc(C2NCCc3c2[nH]c2ccccc32)cc1)c1cc(C(F)(F)F)cc(C(F)(F)F)c1 (stereo not drawn)	16 (≈ 31.8 µM)	16 (≈ 31.8 µM)	64 (≈ 127 µM)	128 (≈ 254 µM)	> 128	128 (≈ 254 µM)			
O=C(Nc1ccc(C2NCCc3c2[nH]c2ccccc32)cc1)c1cccc([N+](=O)[O-])c1 (stereo not drawn)	8 (≈ 19.4 µM)	16 (≈ 38.8 µM)	32 (≈ 77.6 µM)	16 (≈ 38.8 µM)	> 128	16 (≈ 38.8 µM)			
CN1CCc2c([nH]c3ccccc23)C1c1ccc(NC(=O)c2cccc(C(F)(F)F)c2)cc1 (stereo not drawn)	32 (≈ 71.2 µM)	32 (≈ 71.2 µM)	32 (≈ 71.2 µM)	16 (≈ 35.6 µM)	> 128	32 (≈ 71.2 µM)			
CN1CCc2c([nH]c3ccccc23)C1c1ccc(NC(=O)c2ccc(F)cc2)cc1 (stereo not drawn)	4 (≈ 10 µM)	8 (≈ 20 µM)	128 (≈ 320 µM)	16 (≈ 40.1 µM)	> 128	16 (≈ 40.1 µM)			
O=C(Nc1ccc(C2NCCc3c2[nH]c2ccccc32)cc1)c1cccc(F)c1 (stereo not drawn)	16 (≈ 41.5 µM)	4 (≈ 10.4 µM)	32 (≈ 83 µM)	8 (≈ 20.8 µM)	> 128	16 (≈ 41.5 µM)			
O=C(Nc1ccc(C2NCCc3c2[nH]c2ccccc32)cc1)c1ccccc1F (stereo not drawn)	32 (≈ 83 µM)	32 (≈ 83 µM)	64 (≈ 166 µM)	128 (≈ 332 µM)	> 128	64 (≈ 166 µM)			
O=C(Nc1ccc(C2NCCc3c2[nH]c2ccccc32)cc1)c1ccc([N+](=O)[O-])cc1 (stereo not drawn)	8 (≈ 19.4 µM)	4 (≈ 9.7 µM)	32 (≈ 77.6 µM)	8 (≈ 19.4 µM)	> 128	8 (≈ 19.4 µM)			
CN1CCc2c([nH]c3ccccc23)C1c1ccc(NC(=O)c2ccc(F)c(C(F)(F)F)c2)cc1 (stereo not drawn)	16 (≈ 34.2 µM)	8 (≈ 17.1 µM)	64 (≈ 137 µM)	16 (≈ 34.2 µM)	> 128	16 (≈ 34.2 µM)			
O=C(Nc1ccc(C2NCCc3c2[nH]c2ccccc32)cc1)c1ccc(Br)cc1 (stereo not drawn)	32 (≈ 71.7 µM)	32 (≈ 71.7 µM)	16 (≈ 35.8 µM)	32 (≈ 71.7 µM)	> 128	8 (≈ 17.9 µM)			
O=C(Nc1ccc(C2NCCc3c2[nH]c2ccccc32)cc1)c1cccc(Cl)c1 (stereo not drawn)	16 (≈ 39.8 µM)	8 (≈ 19.9 µM)	64 (≈ 159 µM)	8 (≈ 19.9 µM)	> 128	8 (≈ 19.9 µM)			
CN1CCc2c([nH]c3ccccc23)C1c1ccc(NC(=O)c2ccc(Cl)cc2)cc1 (stereo not drawn)	8 (≈ 19.2 µM)	16 (≈ 38.5 µM)	64 (≈ 154 µM)	32 (≈ 76.9 µM)	> 128	32 (≈ 76.9 µM)			
CN1CCc2c([nH]c3ccccc23)C1c1ccc(NC(=O)c2ccc(C(F)(F)F)cc2)cc1 (stereo not drawn)	8 (≈ 17.8 µM)	8 (≈ 17.8 µM)	32 (≈ 71.2 µM)	16 (≈ 35.6 µM)	128 (≈ 285 µM)	16 (≈ 35.6 µM)			
CN1CCc2c([nH]c3ccccc23)C1c1ccc(NC(=O)c2ccccc2)cc1 (stereo not drawn)	128 (≈ 336 µM)	128 (≈ 336 µM)	64 (≈ 168 µM)	128 (≈ 336 µM)	> 128	128 (≈ 336 µM)			
CN1CCc2c([nH]c3ccccc23)C1c1ccc(NC(=O)c2cccc([N+](=O)[O-])c2)cc1 (stereo not drawn)	64 (≈ 150 µM)	64 (≈ 150 µM)	> 128	64 (≈ 150 µM)	> 128	64 (≈ 150 µM)			
COC(=O)c1ccc(C(=O)Nc2ccc(C3NCCc4c3[nH]c3ccccc43)cc2)cc1 (stereo not drawn)	16 (≈ 37.6 µM)	32 (≈ 75.2 µM)	16 (≈ 37.6 µM)	16 (≈ 37.6 µM)	> 128	16 (≈ 37.6 µM)			
Cc1cccc(C(=O)Nc2ccc(C3c4[nH]c5ccccc5c4CCN3C)cc2)c1 (stereo not drawn)	32 (≈ 80.9 µM)	64 (≈ 162 µM)	32 (≈ 80.9 µM)	32 (≈ 80.9 µM)	> 128	64 (≈ 162 µM)			
CN1CCc2c([nH]c3ccccc23)C1c1ccc(NC(=O)c2ccc([N+](=O)[O-])cc2)cc1 (stereo not drawn)	32 (≈ 75 µM)	16 (≈ 37.5 µM)	32 (≈ 75 µM)	32 (≈ 75 µM)	> 128	32 (≈ 75 µM)			
Cc1cccc(C(=O)Nc2ccc(C3NCCc4c3[nH]c3ccccc43)cc2)c1 (stereo not drawn)	32 (≈ 83.9 µM)	64 (≈ 168 µM)	32 (≈ 83.9 µM)	32 (≈ 83.9 µM)	> 128	32 (≈ 83.9 µM)			
CN1CCc2c([nH]c3ccccc23)C1c1ccc(NC(=O)c2ccccc2F)cc1 (stereo not drawn)	64 (≈ 160 µM)	32 (≈ 80.1 µM)	32 (≈ 80.1 µM)	128 (≈ 320 µM)	> 128	64 (≈ 160 µM)			
O=C(Nc1ccc(C2NCCc3c2[nH]c2ccccc32)cc1)c1ccccc1 (stereo not drawn)	128 (≈ 348 µM)	128 (≈ 348 µM)	32 (≈ 87.1 µM)	32 (≈ 87.1 µM)	> 128	64 (≈ 174 µM)			
CN1CCc2c([nH]c3ccccc23)C1c1ccc(NC(=O)c2ccc(Br)cc2)cc1 (stereo not drawn)	32 (≈ 69.5 µM)	32 (≈ 69.5 µM)	64 (≈ 139 µM)	32 (≈ 69.5 µM)	> 128	32 (≈ 69.5 µM)			
CN1CCc2c([nH]c3ccccc23)C1c1ccc(NC(=O)c2cccc(F)c2)cc1 (stereo not drawn)	32 (≈ 80.1 µM)	4 (≈ 10 µM)	16 (≈ 40.1 µM)	16 (≈ 40.1 µM)	> 128	16 (≈ 40.1 µM)			
Cc1ccccc1C(=O)Nc1ccc(C2NCCc3c2[nH]c2ccccc32)cc1 (stereo not drawn)	32 (≈ 83.9 µM)	32 (≈ 83.9 µM)	128 (≈ 336 µM)	128 (≈ 336 µM)	> 128	64 (≈ 168 µM)			
O=C(Nc1ccc(C2NCCc3c2[nH]c2ccccc32)cc1)c1ccc(Cl)cc1 (stereo not drawn)	4 (≈ 9.95 µM)	8 (≈ 19.9 µM)	128 (≈ 318 µM)	8 (≈ 19.9 µM)	> 128	16 (≈ 39.8 µM)	32 (≈ 79.6 µM)	16 (≈ 39.8 µM)	1
O=C(Nc1ccc(C2NCCc3c2[nH]c2ccccc32)cc1)c1ccc(F)c(C(F)(F)F)c1 (stereo not drawn)	4 (≈ 8.82 µM)	8 (≈ 17.6 µM)	32 (≈ 70.6 µM)	16 (≈ 35.3 µM)	> 128	8 (≈ 17.6 µM)			
O=C(Nc1ccc(C2NCCc3c2[nH]c2ccccc32)cc1)c1cccc(C(F)(F)F)c1 (stereo not drawn)	8 (≈ 18.4 µM)	4 (≈ 9.19 µM)	32 (≈ 73.5 µM)	16 (≈ 36.7 µM)	128 (≈ 294 µM)	8 (≈ 18.4 µM)			
CN1CCc2c([nH]c3ccccc23)C1c1ccc(NC(=O)c2cccc(Cl)c2)cc1 (stereo not drawn)	16 (≈ 38.5 µM)	8 (≈ 19.2 µM)	64 (≈ 154 µM)	16 (≈ 38.5 µM)	> 128	16 (≈ 38.5 µM)			
